# Read-outs that look alike come from different tables or passages of the source.
# What was measured:
# [1] = in vivo
# Method: (§1) Belinostat was administered by a 30 min intravenous (IV) infusion on days 1 through 5 of each cycle; pevonedistat was administered by a 60 min IV infusion on days 1, 3 and 5 immediately after belinostat. The treatments were repeated on 21-day cycles until disease progression or unacceptable toxicity. […] The regimen was administered on an outpatient basis.
# (§2) Blood samples for measurement of plasma concentrations were collected on day 1 of cycle 1 for both belinostat and pevonedistat. Belinostat, PK samples were collected pretreatment, 5 min prior to the end of the infusion, and at 0.25, 0.5, 1, 2, 4, 6, 8, and 24 h after the end of the infusion. Pevonedistat, PK samples were collected pretreatment and 0.5, 1, 2, 2.5, 5, and 24 h after the start of the infusion. Plasma was stored at − 80 °C until analysis. […] Concentrations of belinostat were determined over the range of 30–5000 ng/mL with dilutions of up to 1:100 v/v using a validated LC/MS/MS method at the Analytical Pharmacology Core Laboratory at the Sidney Kimmel Comprehensive Cancer Center at Johns Hopkins [33].
# (§3) Pharmacokinetic parameters were calculated from individual concentration–time data using standard noncompartmental methods as implemented in Phoenix WinNonlin version 8.2 (Pharsight A Certara Company, Cary, North Carolina). Pharmacokinetic parameters were summarized using descriptive statistics. Differences between the pharmacokinetic parameters between dose levels or BSA-based dose were evaluated statistically via the nonparametric Kruskal–Wallis test. All statistical tests were performed using JMP Statistical Discovery software (version 7; SAS Institute, Cary, NC).
# [2] = system: relapsed/refractory AML and myelodysplastic syndrome; parameters: method as in PMID 24369094, PMID 21538061; settings: some patients; cited from earlier work
# [3] = Plasma pharmacokinetics of belinostat and belinostat glucuronide (LC/MS/MS, noncompartmental analysis)
# Method: as §1, §2, §3
# [4] = parameters: method as in PMID 31097586, PMID 33441097; settings: e.g. value, compared with clinical Cmax; cited from earlier work
# [5] = system: high-risk MDS; parameters: method as in PMID 35728048; settings: comparator (azacitidine without pevonedistat); subset with high-risk MDS, post-hoc analysis; cited from earlier work
# [6] = cycle 1 day 1, dose level 1, belinostat 800 mg/m^2 IV (pevonedistat 20 mg/m^2), n=2, actual values
# [7] = cycle 1 day 1, dose level 3, belinostat 800 mg/m^2 IV (pevonedistat 37 mg/m^2), n=2, actual values
structure (smiles),measurement,setting,value
O=C(/C=C/c1cccc(S(=O)(=O)Nc2ccccc2)c1)NO[C@@H]1O[C@H](C(=O)O)[C@@H](O)[C@H](O)[C@H]1O [Belinostat glucuronide],Pharmacokinetic parameters compared between dose levels,[1],not different by dose level
O=C(/C=C/c1cccc(S(=O)(=O)Nc2ccccc2)c1)NO [Belinostat],Single-agent clinical activity,[2],stable disease over several months
same,Belinostat clearance by BSA-based dose,"[3]; 1000 mg/m^2 compared with 800 mg/m^2, p = 0.05, Kruskal–Wallis",significantly higher
same,AUCINF,[3]; [6],75.2 µM·h
same,Cl (systemic clearance),[3]; [6],87.5 L/h
same,T1/2,[3]; [6],40.2 min
same,Tmax,"[3]; cycle 1 day 1, dose level 2, belinostat 800 mg/m^2 IV (pevonedistat 25 mg/m^2), median (range; n)",0.5 (0.4–0.5; 3) h
same,Tmax,"[3]; cycle 1 day 1, dose level 3, belinostat 800 mg/m^2 IV (pevonedistat 37 mg/m^2), median (range; n)",0.4 (0.4–0.5; 3) h
same,AUCINF,[3]; [7],87.4 µM·h
same,Cl (systemic clearance),[3]; [7],82.4 L/h
same,T1/2,[3]; [7],87.6 min
same,Pharmacokinetic parameters compared between dose levels,"[3]; dose levels 1-5, Kruskal–Wallis",not different by dose level
same,Tmax,"[3]; human, plasma, iv",30 min
same,AUC(0-inf),"[3]; human, plasma, iv, 800 mg/m2, AUCINF, cycle 1 day 1, belinostat 800 mg/m^2 IV, all 800 mg/m^2 patients (dose levels 1-3), mean±SD, n=7",67.5 ± 19.1 µM·h
same,clearance,"[3]; human, plasma, iv, 800 mg/m2, Cl (systemic clearance), cycle 1 day 1, belinostat 800 mg/m^2 IV, all 800 mg/m^2 patients (dose levels 1-3), mean±SD, n=7",1290 mL/min
same,half-life,"[3]; human, plasma, iv, 800 mg/m2, T1/2, cycle 1 day 1, belinostat 800 mg/m^2 IV, all 800 mg/m^2 patients (dose levels 1-3), mean±SD, n=7",67.8 ± 30 min
same,AUC(0-inf),"[3]; human, plasma, iv, 1000 mg/m2, AUCINF, cycle 1 day 1, belinostat 1000 mg/m^2 IV, all 1000 mg/m^2 patients (dose levels 4-5), mean±SD, n=7",51.6 ± 25.8 µM·h
same,clearance,"[3]; human, plasma, iv, 1000 mg/m2, Cl (systemic clearance), cycle 1 day 1, belinostat 1000 mg/m^2 IV, all 1000 mg/m^2 patients (dose levels 4-5), mean±SD, n=7",2180 mL/min
same,half-life,"[3]; human, plasma, iv, 1000 mg/m2, T1/2, cycle 1 day 1, belinostat 1000 mg/m^2 IV, all 1000 mg/m^2 patients (dose levels 4-5), mean±SD, n=7",53.4 ± 18 min
same,Cmax,"[3]; human, plasma, iv, 1000 mg/m2, preEOI Cmax (peak plasma concentration), cycle 1 day 1, belinostat 1000 mg/m^2 IV, all 1000 mg/m^2 patients (dose levels 4-5), mean±SD, n=7",104 ± 37.8 µM
same,AUC(0-inf),"[3]; human, plasma, iv, AUCINF, cycle 1 day 1, dose level 1, belinostat 800 mg/m^2 IV (pevonedistat 20 mg/m^2), n=2, actual values",54.6 µM·h
same,AUC(0-inf),"[3]; human, plasma, iv, AUCINF, cycle 1 day 1, dose level 2, belinostat 800 mg/m^2 IV (pevonedistat 25 mg/m^2), mean±SD, n=3",64.7 ± 27.4 µM·h
same,AUC(0-inf),"[3]; human, plasma, iv, AUCINF, cycle 1 day 1, dose level 3, belinostat 800 mg/m^2 IV (pevonedistat 37 mg/m^2), n=2, actual values",61 µM·h
same,AUC(0-inf),"[3]; human, plasma, iv, AUCINF, cycle 1 day 1, dose level 4, belinostat 1000 mg/m^2 IV (pevonedistat 37 mg/m^2), mean±SD, n=3",60.3 ± 39.2 µM·h
same,AUC(0-inf),"[3]; human, plasma, iv, AUCINF, cycle 1 day 1, dose level 5, belinostat 1000 mg/m^2 IV (pevonedistat 50 mg/m^2), mean±SD, n=4",45.1 ± 13.4 µM·h
same,clearance,"[3]; human, plasma, iv, Cl (systemic clearance), cycle 1 day 1, dose level 1, belinostat 800 mg/m^2 IV (pevonedistat 20 mg/m^2), n=2, actual values",1000 mL/min
same,clearance,"[3]; human, plasma, iv, Cl (systemic clearance), cycle 1 day 1, dose level 2, belinostat 800 mg/m^2 IV (pevonedistat 25 mg/m^2), mean±SD, n=3",1380 mL/min
same,clearance,"[3]; human, plasma, iv, Cl (systemic clearance), cycle 1 day 1, dose level 3, belinostat 800 mg/m^2 IV (pevonedistat 37 mg/m^2), n=2, actual values",1030 mL/min
same,clearance,"[3]; human, plasma, iv, Cl (systemic clearance), cycle 1 day 1, dose level 4, belinostat 1000 mg/m^2 IV (pevonedistat 37 mg/m^2), mean±SD, n=3",2020 mL/min
same,clearance,"[3]; human, plasma, iv, Cl (systemic clearance), cycle 1 day 1, dose level 5, belinostat 1000 mg/m^2 IV (pevonedistat 50 mg/m^2), mean±SD, n=4",2300 mL/min
same,half-life,"[3]; human, plasma, iv, T1/2, cycle 1 day 1, dose level 1, belinostat 800 mg/m^2 IV (pevonedistat 20 mg/m^2), n=2, actual values",35.4 min
same,half-life,"[3]; human, plasma, iv, T1/2, cycle 1 day 1, dose level 2, belinostat 800 mg/m^2 IV (pevonedistat 25 mg/m^2), mean±SD, n=3",81.6 ± 36.6 min
same,half-life,"[3]; human, plasma, iv, T1/2, cycle 1 day 1, dose level 3, belinostat 800 mg/m^2 IV (pevonedistat 37 mg/m^2), n=2, actual values",67.2 min
same,half-life,"[3]; human, plasma, iv, T1/2, cycle 1 day 1, dose level 4, belinostat 1000 mg/m^2 IV (pevonedistat 37 mg/m^2), mean±SD, n=3",61.2 ± 26.4 min
same,half-life,"[3]; human, plasma, iv, T1/2, cycle 1 day 1, dose level 5, belinostat 1000 mg/m^2 IV (pevonedistat 50 mg/m^2), mean±SD, n=4",47.4 ± 7.2 min
same,Cmax,"[3]; human, plasma, iv, preEOI Cmax (peak plasma concentration), cycle 1 day 1, dose level 1, belinostat 800 mg/m^2 IV (pevonedistat 20 mg/m^2), n=2, actual values",109 µM
same,Cmax,"[3]; human, plasma, iv, preEOI Cmax (peak plasma concentration), cycle 1 day 1, dose level 2, belinostat 800 mg/m^2 IV (pevonedistat 25 mg/m^2), mean±SD, n=3",120 ± 50.3 µM
same,Cmax,"[3]; human, plasma, iv, preEOI Cmax (peak plasma concentration), cycle 1 day 1, dose level 4, belinostat 1000 mg/m^2 IV (pevonedistat 37 mg/m^2), mean±SD, n=4",96.5 ± 46 µM
same,Cmax,"[3]; human, plasma, iv, preEOI Cmax (peak plasma concentration), cycle 1 day 1, dose level 5, belinostat 1000 mg/m^2 IV (pevonedistat 50 mg/m^2), mean±SD, n=3",114 ± 29.4 µM
same,Cmax,"[3]; read-out: preEOI Cmax (peak plasma concentration), cycle 1 day 1, belinostat 800 mg/m^2 IV, all 800 mg/m^2 patients (dose levels 1-3), mean±SD, n=8",123 ± 34.3 µM
same,Cmax,"[3]; read-out: preEOI Cmax (peak plasma concentration), cycle 1 day 1, dose level 1, belinostat 800 mg/m^2 IV (pevonedistat 20 mg/m^2), n=2, actual values",144 µM
same,Cmax,"[3]; read-out: preEOI Cmax (peak plasma concentration), cycle 1 day 1, dose level 3, belinostat 800 mg/m^2 IV (pevonedistat 37 mg/m^2), mean±SD, n=3",125 ± 35 µM
same,Concentrations shown to exert activity in preclinical studies,[4],100 to 200 nM
Nc1ncn([C@@H]2O[C@H](CO)[C@@H](O)[C@H]2O)c(=O)n1 [azacitidine],Survival,[5],20.6 mos
